Measurements as given in patent publication US12281122B1, “PI3K inhibitors” (Cogent Biosciences, Inc., priority 2023, dated 2025).

How the values were obtained:
[1] = system: T47D (PI3Kα-H1047R) cell line; assay: HTRF phospho-AKT(S473) cell assay in T47D cells; format: cell-based, human; details: Homo sapiens; HTRF phospho-AKT(S473), T47D (PI3Kα-H1047R) cells, 2 hours compound incubation
Method in brief: (§1)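 Cells plated overnight (T47D in RPMI/10% FBS/0.2 units/mL insulin; SKBR3 in McCoy's 5A/10% FBS), then given 12-point 1:3 compound series (top 5 μM T47D, 10 μM SKBR3; ≤0.5% DMSO) for 2 h at 37° C. SKBR3 stimulated with 70 ng/ml PDGF-BB for final 15 min. Lysate pAKT(S473) by HTRF; IC50 calculated.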

[2] = system: SKBR3 (PI3Kα-Wild Type) cell line; assay: HTRF phospho-AKT(S473) cell assay in SKBR3 cells; format: cell-based, human; details: Homo sapiens, SK-BR-3; HTRF phospho-AKT(S473), SKBR3 (PI3Kα-Wild Type) cells, 2 hours compound incubation, PDGF-BB stimulated
Method in brief: as §1

Compound: COc1ccc(N2C[C@@H]3C[C@H]2CN3c2nc3c([C@@H](C)Nc4ccc(Cl)nc4C(=O)NS(C)(=O)=O)cc(C)cc3c(=O)n2C)cn1 [Compound 636, 6-chloro-3-(((R)-1-(2-((1S,4S)-5-(6-methoxypyridin-3-yl)-2,5-diazabicyclo [2.2.1]heptan-2-yl)-3,6-dimethyl-4-oxo-3,4-dihydroquinazolin-8-yl)ethyl)amino)-N-(methylsulfonyl) picolinamide]
- IC50 [1]: 250 to 500 nM
- IC50 [2]: ≥ 5000 nM

Compound: COc1cc(N2C[C@@H]3C[C@H]2CN3c2nc3c([C@@H](C)Nc4ccc(Cl)nc4C(=O)NS(C)(=O)=O)cc(C)cc3c(=O)n2C)ccn1 [Compound 637, 6-chloro-3-(((R)-1-(2-((1S,4S)-5-(2-methoxypyridin-4-yl)-2,5-diazabicyclo [2.2.1]heptan-2-yl)-3,6-dimethyl-4-oxo-3,4-dihydroquinazolin-8-yl)ethyl)amino)-N-(methylsulfonyl) picolinamide]
- IC50 [1]: 250 to 500 nM
- IC50 [2]: ≥ 5000 nM

Compound: COc1ccc(N2C[C@H]3C[C@@H]2CN3c2nc3c([C@@H](C)Nc4ccc(Cl)nc4C(=O)NS(C)(=O)=O)cc(C)cc3c(=O)n2C)cn1 [Compound 638, 6-chloro-3-(((R)-1-(2-((1R,4R)-5-(6-methoxypyridin-3-yl)-2,5-diazabicyclo [2.2.1]heptan-2-yl)-3,6-dimethyl-4-oxo-3,4-dihydroquinazolin-8-yl)ethyl)amino)-N-(methylsulfonyl) picolinamide]
- IC50 [1]: 250 to 500 nM
- IC50 [2]: ≥ 5000 nM

Compound: COc1cc(N2C[C@H]3C[C@@H]2CN3c2nc3c([C@@H](C)Nc4ccc(Cl)nc4C(=O)NS(C)(=O)=O)cc(C)cc3c(=O)n2C)ccn1 [Compound 639, 6-chloro-3-(((R)-1-(2-((1R,4R)-5-(2-methoxypyridin-4-yl)-2,5-diazabicyclo [2.2.1]heptan-2-yl)-3,6-dimethyl-4-oxo-3,4-dihydroquinazolin-8-yl)ethyl)amino)-N-(methylsulfonyl) picolinamide]
- IC50 [1]: 500 to 1000 nM
- IC50 [2]: ≥ 5000 nM

Compound: COc1cc(C2CCN(c3nc4c([C@@H](C)Nc5ccc(Cl)nc5C(=O)NS(C)(=O)=O)cc(C)cc4c(=O)n3C)CC2)ccn1 [Compound 640, (R)-6-chloro-3-((1-(2-(4-(2-methoxypyridin-4-yl)piperidin-1-yl)-3,6-dimethyl-4-oxo-3,4-dihydroquinazolin-8-yl)ethyl)amino)-N-(methylsulfonyl) picolinamide]
- IC50 [1]: 250 to 500 nM
- IC50 [2]: ≥ 5000 nM

Compound: COc1cnc([C@H]2[C@@H]3CN(c4nc5c([C@@H](C)Nc6ccc(Cl)nc6C(=O)NS(C)(=O)=O)cc(C)cc5c(=O)n4C)C[C@@H]32)cn1 [Compound 641, 6-chloro-3-(((R)-1-(2-((1R,5S,6R)-6-(5-methoxypyrazin-2-yl)-3-azabicyclo[3.1.0]hexan-3-yl)-3,6-dimethyl-4-oxo-3,4-dihydroquinazolin-8-yl)ethyl)amino)-N-(methylsulfonyl) picolinamide]
- IC50 [1]: 250 to 500 nM
- IC50 [2]: ≥ 5000 nM

Compound: Cc1cc([C@@H](C)Nc2ccc(Cl)nc2C(=O)NS(C)(=O)=O)c2nc(N3C[C@@H]4[C@H](C3)[C@H]4c3nc(C)n(C(F)F)n3)n(C)c(=O)c2c1 [Compound 642, 6-chloro-3-(((R)-1-(2-((1R,5S,6R)-6-(1-(difluoromethyl)-5-methyl-1H-1,2,4-triazol-3-yl)-3-azabicyclo[3.1.0]hexan-3-yl)-3,6-dimethyl-4-oxo-3,4-dihydroquinazolin-8-yl)ethyl)amino)-N-(methylsulfonyl) picolinamide]
- IC50 [1]: 250 to 500 nM
- IC50 [2]: ≥ 5000 nM

Compound: Cc1cc([C@@H](C)Nc2ccc(Cl)nc2C(=O)NS(C)(=O)=O)c2nc(N3C[C@@H]4[C@H](C3)[C@H]4c3nc(C)nn3C(F)F)n(C)c(=O)c2c1 [Compound 643, 6-chloro-3-(((R)-1-(2-((1R,5S,6R)-6-(1-(difluoromethyl)-3-methyl-1H-1,2,4-triazol-5-yl)-3-azabicyclo[3.1.0]hexan-3-yl)-3,6-dimethyl-4-oxo-3,4-dihydroquinazolin-8-yl)ethyl)amino)-N-(methylsulfonyl) picolinamide]
- IC50 [1]: 250 to 500 nM
- IC50 [2]: ≥ 5000 nM

Compound: Cc1cc([C@@H](C)Nc2ccc(Cl)nc2C(=O)NS(C)(=O)=O)c2nc(N3C[C@@H]4[C@H](C3)[C@H]4c3nnc(C)n3C(F)F)n(C)c(=O)c2c1 [Compound 644, 6-chloro-3-(((R)-1-(2-((1R,5S,6R)-6-(4-(difluoromethyl)-5-methyl-4H-1,2,4-triazol-3-yl)-3-azabicyclo[3.1.0]hexan-3-yl)-3,6-dimethyl-4-oxo-3,4-dihydroquinazolin-8-yl)ethyl)amino)-N-(methylsulfonyl) picolinamide]
- IC50 [1]: 250 to 500 nM
- IC50 [2]: ≥ 5000 nM

Compound: Cc1cc([C@@H](C)Nc2ccc(Cl)nc2C(=O)NS(C)(=O)=O)c2nc(N3CCN(c4ccnc(C(F)F)n4)CC3)n(C)c(=O)c2c1 [Compound 649, (R)-6-chloro-3-((1-(2-(4-(2-(difluoromethyl)pyrimidin-4-yl)piperazin-1-yl)-3,6-dimethyl-4-oxo-3,4-dihydroquinazolin-8-yl)ethyl)amino)-N-(methylsulfonyl) picolinamide]
- IC50 [1]: < 250 nM
- IC50 [2]: 1000 to 5000 nM

Compound: Cc1cc([C@@H](C)Nc2ccc(Cl)nc2C(=O)NS(C)(=O)=O)c2nc(N3C[C@@H]4[C@H](C3)[C@H]4c3n[nH]cc3C)n(C)c(=O)c2c1 [Compound 651, 6-chloro-3-(((R)-1-(3,6-dimethyl-2-((1R,5S,6R)-6-(4-methyl-1H-pyrazol-3-yl)-3-azabicyclo[3.1.0]hexan-3-yl)-4-oxo-3,4-dihydroquinazolin-8-yl)ethyl)amino)-N-(methylsulfonyl) picolinamide]
- IC50 [1]: 250 to 500 nM
- IC50 [2]: 1000 to 5000 nM

Compound: Cc1cc([C@@H](C)Nc2ccc(Cl)nc2C(=O)NS(C)(=O)=O)c2nc(N3CCN(c4cnc(C)c(F)c4)CC3)n(C)c(=O)c2c1 [Compound 652, (R)-6-chloro-3-((1-(2-(4-(5-fluoro-6-methylpyridin-3-yl)piperazin-1-yl)-3,6-dimethyl-4-oxo-3,4-dihydroquinazolin-8-yl)ethyl)amino)-N-(methylsulfonyl) picolinamide]
- IC50 [1]: 250 to 500 nM
- IC50 [2]: 1000 to 5000 nM

Compound: Cc1cc([C@@H](C)Nc2ccc(Cl)nc2C(=O)NS(C)(=O)=O)c2nc(N3C[C@@H]4[C@H](C3)[C@H]4c3ncc(C)o3)n(C)c(=O)c2c1 [Compound 653, 6-chloro-3-(((R)-1-(3,6-dimethyl-2-((1R,5S,6R)-6-(5-methyloxazol-2-yl)-3-azabicyclo[3.1.0]hexan-3-yl)-4-oxo-3,4-dihydroquinazolin-8-yl)ethyl)amino)-N-(methylsulfonyl) picolinamide]
- IC50 [1]: 250 to 500 nM
- IC50 [2]: 1000 to 5000 nM

Compound: Cc1cc([C@@H](C)Nc2ccc(Cl)nc2C(=O)NS(C)(=O)=O)c2nc(N3C[C@@H]4[C@H](C3)[C@H]4c3nnc(C)o3)n(C)c(=O)c2c1 [Compound 654, 6-chloro-3-(((R)-1-(3,6-dimethyl-2-((1R,5S,6R)-6-(5-methyl-1,3,4-oxadiazol-2-yl)-3-azabicyclo[3.1.0]hexan-3-yl)-4-oxo-3,4-dihydroquinazolin-8-yl)ethyl)amino)-N-(methylsulfonyl) picolinamide]
- IC50 [1]: < 250 nM
- IC50 [2]: 1000 to 5000 nM

Compound: [2H]C([2H])([2H])n1nc([C@H]2[C@@H]3CN(c4nc5c([C@@H](C)Nc6ccc(Cl)nc6C(=O)NS(C)(=O)=O)cc(C)cc5c(=O)n4C)C[C@@H]32)c(Cl)c1C [Compound 661, 6-chloro-3-(((R)-1-(2-((1R,5S,6R)-6-(4-chloro-5-methyl-1-(methyl-d3)-1H-pyrazol-3-yl)-3-azabicyclo[3.1.0]hexan-3-yl)-3,6-dimethyl-4-oxo-3,4-dihydroquinazolin-8-yl)ethyl)amino)-N-(methylsulfonyl) picolinamide]
- IC50 [1]: 250 to 500 nM
- IC50 [2]: ≥ 5000 nM

Compound: Cc1cc([C@@H](C)Nc2ccc(Cl)nc2C(=O)NS(C)(=O)=O)c2nc(N3CCN(c4ncccc4F)CC3)n(C)c(=O)c2c1 [Compound 662, (R)-6-chloro-3-((1-(2-(4-(3-fluoropyridin-2-yl)piperazin-1-yl)-3,6-dimethyl-4-oxo-3,4-dihydroquinazolin-8-yl)ethyl)amino)-N-(methylsulfonyl) picolinamide]
- IC50 [1]: 250 to 500 nM
- IC50 [2]: ≥ 5000 nM

Compound: Cc1ccc(N2C[C@@H]3C[C@H]2CN3c2nc3c([C@@H](C)Nc4ccc(Cl)nc4C(=O)NS(C)(=O)=O)cc(C)cc3c(=O)n2C)nc1 [Compound 663, 6-chloro-3-(((R)-1-(3,6-dimethyl-2-((1S,4S)-5-(5-methylpyridin-2-yl)-2,5-diazabicyclo [2.2.1]heptan-2-yl)-4-oxo-3,4-dihydroquinazolin-8-yl)ethyl)amino)-N-(methylsulfonyl) picolinamide]
- IC50 [1]: 500 to 1000 nM
- IC50 [2]: > 5000 nM

Compound: Cc1cc([C@@H](C)Nc2ccc(Cl)nc2C(=O)NS(C)(=O)=O)c2nc(N3C[C@H]4C[C@@H]3CN4c3cnc(C)c(F)c3)n(C)c(=O)c2c1 [Compound 664, 6-chloro-3-(((R)-1-(2-((1R,4R)-5-(5-fluoro-6-methylpyridin-3-yl)-2,5-diazabicyclo [2.2.1]heptan-2-yl)-3,6-dimethyl-4-oxo-3,4-dihydroquinazolin-8-yl)ethyl)amino)-N-(methylsulfonyl) picolinamide]
- IC50 [1]: 500 to 1000 nM
- IC50 [2]: ≥ 5000 nM

Compound: Cc1cc([C@@H](C)Nc2ccc(Cl)nc2C(=O)NS(C)(=O)=O)c2nc(N3C[C@@H]4[C@H](C3)[C@H]4c3cc(C)on3)n(C)c(=O)c2c1 [Compound 665, 6-chloro-3-(((R)-1-(3,6-dimethyl-2-((1R,5S,6R)-6-(5-methylisoxazol-3-yl)-3-azabicyclo[3.1.0]hexan-3-yl)-4-oxo-3,4-dihydroquinazolin-8-yl)ethyl)amino)-N-(methylsulfonyl) picolinamide]
- IC50 [1]: < 250 nM
- IC50 [2]: 1000 to 5000 nM
